Laboratory results: US12473299B2, “Cross-linked nucleoside and nucleotide using same” (Osaka University, priority 2020, dated 2025)
In the oligonucleotide strings, read from the 5' end, every base follows the letter of its sugar. An asterisk marks phosphorothioate; unmarked linkages are phosphodiester. Other units and linkages are bracketed, terminal groups are in braces. A string of capitals states the bases alone. [BANA] = BANA-modified thymidine; l = locked nucleic acid (LNA); [HNA] = hexitol nucleic acid; [5mC] = 5-methylcytosine; d = 2'-deoxy (DNA)

Tests used:
Type in all cases: binding
[1] = test system: single-stranded oligo DNA 5′-d(AGCAAAAAACGC)-3′ (SEQ ID No. 19); experiment: Double-strand forming ability (Tm) with single-stranded oligo DNA; details: for ssDNA ΔTm/mod.: Tm change per artificially modified nucleic acid base vs 5′-GCGTTTTTTGCT-3′; for ssDNA Tm: oligonucleotide 4 μM, 10 mM phosphate buffer pH 7.2, 100 mM NaCl, mean of three measurements
Description: (§1) The double-strand forming ability of the oligonucleotides was examined by subjecting the different types of oligonucleotides and the target strands to an annealing treatment to form double strands, and then measuring their Tm values. More specifically, a mixed liquid of each oligonucleotide (final concentration: 4 μM) and a phosphate buffer (10 mM, pH 7.2, 130 μL) containing sodium chloride (final concentration: 100 mM) was bathed in boiling water and then slowly cooled to room temperature. After that, the mixed liquid was cooled to 5° C. under nitrogen stream before starting the measurement. The temperature was raised to 90° C. at a rate of 0.5° C./min while absorbance at 260 nm was plotted at intervals of 0.5° C. The Tm value was calculated using a median method or differentiation (SEQ ID No. 17), and a mean value of three independent measurements was adopted.

[2] = test system: single-stranded oligo RNA 5′-r(AGCAAAAAACGC)-3′ (SEQ ID No. 18); experiment: Double-strand forming ability (Tm) with single-stranded oligo RNA; details: for ssRNA ΔTm/mod.: Tm change per artificially modified nucleic acid base vs 5′-GCGTTTTTTGCT-3′; for ssRNA Tm: oligonucleotide 4 μM, 10 mM phosphate buffer pH 7.2, 100 mM NaCl, mean of three measurements; for RNA Complement ΔTm: difference from the Tm of the sequence (18); for RNA Complement Tm: sequences (18) to (21), as in Example 9
[3] = test system: single-stranded oligo RNA 5′-r([…])-3′ (SEQ ID No. 36); experiment: Double-strand forming ability (Tm) of mMALAT1 antisense oligonucleotides with RNA; details: for RNA Complement Tm: as in Example 9; for RNA Complement ΔTm: difference from the Tm of the sequence (26)
Description: as §1
Furthermore, the double-strand forming ability for RNA, of each oligonucleotide was assessed in a manner similar to that of Example 9. Two sequences shown in Table 42 below were used as controls (also represented by SEQ ID Nos. 34 and 35, respectively).
A single-stranded oligo RNA 5′-r([…])-3′ (SEQ ID No. 36) was used as a target strand.

[4] = test system: single-stranded oligo DNA 5′-d(AGCAAAYAACGC)-3′; experiment: Base selectivity (Tm, match/mismatch) with single-stranded oligo DNA
Description: as §1
(§2) For the above sequences (1) to (5), the double-strand forming ability (binding affinity) was examined in a similar manner using a single-stranded oligo RNA 5′-r([…])-3′ and a single-stranded oligo DNA 5′-d([…])-3′ as target strands.
(§3) For the single-stranded oligo RNA, Y was one of rA (SEQ ID No. 18), rU (SEQ ID No. 20), rG (SEQ ID No. 21), and rC (SEQ ID No. 22). For the single-stranded oligo DNA, Y was one of dA (SEQ ID No. 19), dT (SEQ ID No. 23), dG (SEQ ID No. 24), and dC (SEQ ID No. 25).
(§4) In the table, ΔTm was calculated by subtracting the Tm value of the match (dA or rA) from the Tm value of the mismatch.

[5] = test system: single-stranded oligo RNA 5′-r(AGCAAAYAACGC)-3′; experiment: Base selectivity (Tm, match/mismatch) with single-stranded oligo RNA
Description: as §1, §2, §3, §4

[6] = sequences (1) to (5), label = unit at position 6, match

With “5′-d(GCGTTHTTTGCT)-3′ (DNA GCGTTTTTTGCT; sugars from the 5' end d5 [HNA]1 d6, backbone not given here) [H=HNA-T, reference compound]” the “ssDNA ΔTm/mod.” value [1] was −4 °C, the “ssDNA Tm” value [1] was 47 °C and the “ssRNA ΔTm/mod.” value [2] was “+1 °C”. For the same compound, the “ssRNA Tm” value [2] was 49 °C.

With “5′-d(c^t^a^g^t^t^c^a^c^t^g^a^a^t^g^c)-3′ (antisense dC*dT*dA*dG*dT*dT*dC*dA*dC*dT*dG*dA*dA*dT*dG*dC) [(27), control, PS DNA, reference compound]” the “RNA Complement Tm” value [3] was 44.2 °C and the “RNA Complement ΔTm” value [3] was −17.9 °C.

For “5′-d(GCG222222GCT)-3′ (DNA GCGTTTTTTGCT; BANA-T2 modified nucleotides; modified_base (4)..(9) t = BANA-t2) [5′-GCG222222GCT-3′, 2=Compound 19 (BANA-T2)]”, the “ssDNA ΔTm/mod.” value [1] was −0.7 °C, the “ssDNA Tm” value [1] was 47 °C and the “ssRNA ΔTm/mod.” value [2] was “+4.5 °C”. For the same compound, the “ssRNA Tm” value [2] was 75 °C.

For “5′-d(GCGTTL33TGCT)-3′ (DNA GCGTTTTTTGCT; LNA-T and BANA-T3 modified nucleotides; modified_base (6)..(6) t = LNA-t; modified_base (7)..(8) t = BANA-t3) [(19), L=LNA-T, 3=Compound 25 (BANA-T3)]”, the “RNA Complement ΔTm” value [2] was “+1 °C” and the “RNA Complement Tm” value [2] was 64 °C.

“5′-d(GCGTTTTTTGCT)-3′ (DNA, backbone and methylation of C not given here) [native DNA (dT), reference compound]” was tested, and the “ssDNA Tm” value [1] was 51 °C and the “ssRNA Tm” value [2] was 48 °C.

For “5′-d(5^T^^LA^g^t^t^c^a^c^t^g^a^a^T^LG^5)-3′ (antisense CTAGTTCACTGAATGC; BANA and LNA modifications, phosphorothioate linkages; modified_base (1)..(1) c = SANA-mC3; modified_base (2)..(2) t = SANA-t3; modified_base (2)..(13) phosphorothioated; modified_base (3)..(3) a = LNA-a; modified_base (14)..(14) t = SANA-t3; modified_base (15)..(15) g = LNA-g; modified_base (16)..(16) c = SANA-mC3) [(24), antisense oligonucleotide against mMALAT1; 5: BANA-^mC3, T: BANA-T3]”, the “RNA Complement Tm” value [3] was 61.7 °C and the “RNA Complement ΔTm” value [3] was −0.4 °C.

With “5′-d(GCGTT33LTGCT)-3′ (DNA GCGTTTTTTGCT; LNA-T and BANA-T3 modified nucleotides; modified_base (6)..(7) t = BANA-t3; modified_base (8)..(8) t =LNA-t) [(21), L=LNA-T, 3=Compound 25 (BANA-T3)]” the “RNA Complement ΔTm” value [2] was −2 °C and the “RNA Complement Tm” value [2] was 61 °C.

For “5′-d(GCGTT3L3TGCT)-3′ (DNA GCGTTTTTTGCT; LNA-T and BANA-T3 modified nucleotides; modified_base (6)..(6) t = BANA-t3; modified_base (7)..(7) t = LNA-t; modified_base (8)..(8) t = BANA-t3) [(20), L=LNA-T, 3=Compound 25 (BANA-T3)]”, the “RNA Complement ΔTm” value [2] was −3 °C and the “RNA Complement Tm” value [2] was 60 °C.

In the case of “5′-d(5T^LA^g^t^t^c^a^c^t^g^a^a^T^^LG^5)-3′ (antisense CTAGTTCACTGAATGC; BANA and LNA modifications, phosphorothioate linkages; modified_base (1)..(1) c = SANA-mC3; modified_base (2)..(2) t = SANA-t3; modified_base (3)..(3) a = LNA-a; modified_base (4)..(16) phosphorothioated; modified_base (14)..(14) t = SANA-t3; modified_base (15)..(15) g = LNA-g; modified_base (16)..(16) c = SANA-mC3) [(23), antisense oligonucleotide against mMALAT1; 5: BANA-^mC3, T: BANA-T3]”, the “RNA Complement Tm” value [3] is reported as 61.0 °C and the “RNA Complement ΔTm” value [3] is reported as −1.1 °C.

For “5′-d(^LC^^LT^^LA^g^t^t^c^a^c^t^g^a^a^^LT^^LG^^LC)-3′ (antisense CTAGTTCACTGAATGC; sugars from the 5' end l3 d10 l3, all phosphorothioate, methylation of C not given here) [(26), control, LNA gapmer with PS, reference compound]”, the “RNA Complement Tm” value [3] was 62.1 °C.

In the case of “5′-d(GCGTT1TTTGCT)-3′ (DNA GCGTTTTTTGCT; BANA-T1 modified nucleotide; modified_base (6)..(6) t = BANA-t1) [5′-GCGTT1TTTGCT-3′]”, the “ssDNA ΔTm/mod.” value [1] is reported as −10 °C, the “ssDNA Tm” value [1] is reported as 41 °C and the “ssRNA ΔTm/mod.” value [2] is reported as −4 °C. The “ssRNA Tm” value [2] was 44 °C.

For “5′-d(GCG111111GCT)-3′ (DNA GCGTTTTTTGCT; BANA-T1 modified nucleotides; modified_base (4)..(9) ANA-t1) [5′-GCG111111GCT-3′]”, the “ssDNA ΔTm/mod.” value [1] was −1.8 °C, the “ssDNA Tm” value [1] was 40 °C and the “ssRNA ΔTm/mod.” value [2] was “+3.3 °C”. The “ssRNA Tm” value [2] was 68 °C.

With “5′-d(GCGTTLLLTGCT)-3′ (DNA GCGTTTTTTGCT; sugars from the 5' end d5 l3 d4, backbone not given here) [(18), L=LNA-T (LNA), reference compound]” the “RNA Complement Tm” value [2] was 63 °C.

With “5′-d(5^T^^LA^g^t^t^c^a^c^t^g^a^a^T^^LG^5)-3′ (antisense CTAGTTCACTGAATGC; sugars from the 5' end [BANA][BANA]ldddddddddd[BANA]l[BANA], [5mC] at 1, 16, all phosphorothioate, methylation of C not given here) [(22), antisense oligonucleotide against mMALAT1; 5: BANA-^mC3, T: BANA-T3, {circumflex}: PS]” the “RNA Complement Tm” value [3] was 60.3 °C and the “RNA Complement ΔTm” value [3] was −1.8 °C.

For “5′-d(5T^LA^g^t^t^c^a^c^t^g^a^a^T^LG^5)-3′ (antisense CTAGTTCACTGAATGC; BANA and LNA modifications, phosphorothioate linkages; modified_base (1)..(1) c = BANA-mC3; modified_base (2)..(2) t = BANA-t3; modified_base (3)..(3) a = LNA-a; modified_base (3)..(13) phosphorothioated; modified_base (14)..(14) t = BANA-t3; modified_base (15)..(15) g = LNA-g; modified_base (16)..(16) c = BANA-mC3) [(25), antisense oligonucleotide against mMALAT1; 5: BANA-^mC3, T: BANA-T3]”, the “RNA Complement Tm” value [3] was 63.4 °C and the “RNA Complement ΔTm” value [3] was “+1.3 °C”.

`COc1ccc(C(OC[C@H]2OC3CCOC([C@@H]3n3cc(C)c(=O)[nH]c3=O)[C@H]2OP(OCCC#N)N(C(C)C)C(C)C)(c2ccccc2)c2ccc(OC)cc2)cc1` (stereo partly drawn) [compound 19] was tested, and the “ssDNA: Tm, Y = dA” value [4, 6] was 42 °C, the “ssDNA: Tm, Y = dT” value ([4]; sequences (1) to (5), label = unit at position 6, mismatch dT) was 38 °C and the “ssDNA: Tm, Y = dC” value ([4]; sequences (1) to (5), mismatch dC) was 32 °C. The “ssDNA: Tm, Y = dG” value ([4]; sequences (1) to (5), mismatch dG) was 31 °C, the “ssDNA: ΔTm, Y = dC” value ([4]; ΔTm = Tm(mismatch) − Tm(match), mismatch dC) was −10 °C and the “ssDNA: ΔTm, Y = dG” value ([4]; ΔTm = Tm(mismatch) − Tm(match), mismatch dG) was −11 °C. The “ssDNA: ΔTm, Y = dT” value ([4]; ΔTm = Tm(mismatch) − Tm(match), mismatch dT) was −4 °C, the “base pairing with G” value ([5]; introduced into the oligonucleotides, compared with native DNA (dT) (SEQ ID No. 1)) was “suppressed base pairing with G” and the “ssRNA: Tm, Y = rA” value [5, 6] was 48 °C. The “ssRNA: Tm, Y = rC” value ([5]; sequences (1) to (5), mismatch rC) was 34 °C, the “ssRNA: Tm, Y = rG” value ([5]; sequences (1) to (5), mismatch rG) was 39 °C and the “ssRNA: Tm, Y = rU” value ([5]; sequences (1) to (5), mismatch rU) was 40 °C. The “ssRNA: ΔTm, Y = rC” value ([5]; ΔTm = Tm(mismatch) − Tm(match), mismatch rC) was −14 °C, the “ssRNA: ΔTm, Y = rG” value ([5]; ΔTm = Tm(mismatch) − Tm(match), mismatch rG) was −9 °C and the “ssRNA: ΔTm, Y = rU” value ([5]; ΔTm = Tm(mismatch) − Tm(match), mismatch rU) was −8 °C.
